Measured values published in patent US10809268B2, “Methods and kits for measuring and quantifying DNA double-stranded breaks using gamma-H2AX and H2AX” (The United States of America, as represented by the …, priority 2015, dated 2020).

Tests used:
[1] = tested on: A375 xenografts; assay: γ-H2AX and total H2AX immunoassays on cells from drug-treated A375 xenograft mouse models; settings: A375 xenografts in vivo; PARPi given simultaneously or four hours before CPT-11
Method: Pierce REACTI-BIND plates (96-well) (Thermo Scientific) were coated with anti-7-H2AX antibody (Millipore) diluted to a concentration of 4 μg/mL in 0.1 M pH 9.6 carbonate buffer (Sigma-Aldrich, St. Louis, Mo.), 100 μL/well, for 2 hours at 37° C. The γ-H2AX synthetic peptide standard or a whole-cell extract was added to each well and incubated for antigen capture overnight at 4° C. Plates were incubated with 100 μL/well of 2 μg/mL anti-histone H2AX rabbit polyclonal antibody (Abcam) diluted in 2% bovine serum albumin (BSA)/phosphate buffered saline (PBS) supplemented with 1 μL/mL mouse serum for 2 hours (h) at 24° C. Subsequently, 100 μL/well HRP-conjugated affinity-purified goat anti-rabbit (KPL) was added at a final concentration of 1 μg/mL diluted in 2% BSA/PBS, supplemented with 1 μL/mL mouse serum, and incubated for 1 hour at 24° C. […] M200 plate reader (Tecan Group Ltr., Maennedorf, Switzerland). A standard curve was generated by plotting the RLU (relative light unit) values that were obtained for a range of concentrations of the γ-H2AX standard peptide (FIG. 1A). The average γ-H2AX concentration for each cell extract was then determined using the standard curve (FIG. 1B).
A375 xenograft mouse models were treated with vehicle (control), CPT-11 alone, a PARP inhibitor alone, a combination of CPT-11 and the PARP inhibitor (PARPi) administered simultaneously, or a combination of CPT-11 and the PARPi, wherein the PARPi is administered four hours before CPT-11 is administered. […] Cells from the treated mice were quantified for γ-H2AX and total H2AX using the immunoassays of Examples 1 and 2, respectively, and the ratio of γ-H2AX to total H2AX was determined.

[2] = tested on: MCF7 cells; assay: γ-H2AX and total H2AX immunoassays in MCF7 cells treated with SN38 and ATR inhibitors; type: cell-based, human; settings: SN38 0.25 μM plus ATRi 1 or 0.5 μM
[3] = tested on: HT29 cells; assay: Ratio of γ-H2AX to total H2AX in HT29 cells treated 1 hour in vitro; type: cell-based, human
Method: (§1) Pierce REACTI-BIND plates (96-well) (Thermo Scientific) were coated with anti-7-H2AX antibody (Millipore) diluted to a concentration of 4 μg/mL in 0.1 M pH 9.6 carbonate buffer (Sigma-Aldrich, St. Louis, Mo.), 100 μL/well, for 2 hours at 37° C. The γ-H2AX synthetic peptide standard or a whole-cell extract was added to each well and incubated for antigen capture overnight at 4° C. Plates were incubated with 100 μL/well of 2 μg/mL anti-histone H2AX rabbit polyclonal antibody (Abcam) diluted in 2% bovine serum albumin (BSA)/phosphate buffered saline (PBS) supplemented with 1 μL/mL mouse serum for 2 hours (h) at 24° C. Subsequently, 100 μL/well HRP-conjugated affinity-purified goat anti-rabbit (KPL) was added at a final concentration of 1 μg/mL diluted in 2% BSA/PBS, supplemented with 1 μL/mL mouse serum, and incubated for 1 hour at 24° C. Finally, 100 μL/well of freshly prepared SUPERSIGNAL ELISA Pico chemiluminescent substrate (Thermo Scientific, Waltham, Mass.) was added to the plate and immediately read on a TECAN INFINITE M200 plate reader (Tecan Group Ltr., Maennedorf, Switzerland). […] The average γ-H2AX concentration for each cell extract was then determined using the standard curve (FIG. 1B).
Pierce REACTI-BIND plates (96-well) were coated with total anti-H2A core protein HIST1H2AC monoclonal antibody (Novus, St. Charles, Mo.) diluted to a concentration of 4 μg/mL in 0.1 M pH 9.6 carbonate buffer (Sigma-Aldrich), 100 μL/well, for 2 hours at 37° C. […] Finally, 100 μL/well of freshly prepared SUPERSIGNAL ELISA Pico chemiluminescent substrate (Thermo Scientific) was added to the plate and immediately read on a TECAN INFINITE M200 plate reader. […] The average total H2AX concentration for each cell extract was then determined using the standard curve (FIG. 2B).
HT29 cells were treated with the genotoxic agent camptothecin (CPT) or the non-genotoxic agent rhomidepsin for 1 hour at a concentration of 0 (vehicle) 0.001, 0.001, 0.01, 1 or 10 μM. […] DNA DSB, as measured by the ratio of γ-H2AX to total H2AX, was detected with CPT treatment as low as 1 nM. […]

[4] = tested on: γ-H2AX in HT29 or MCF7 cells; assay: Microscope staining with labeled anti-γ-H2AX antibody (IFA) of cells treated as in Example 14; type: cell-based, human; settings: 10 nM, 100 nM, 1 μM and 10 μM CPT; intensity increased with concentration
Text: The presence of γ-H2AX in the cells treated as described in Example 14 was confirmed by staining using a labeled anti-γ-H2AX antibody and observing the intensity of the staining through a microscope. […] The staining intensity increased as the concentration of CPT used to treat the cells increased.
The γ-H2AX in the cells treated as described in Example 14 was quantified by staining using a labeled anti-γ-H2AX antibody and measuring the intensity of the staining observed through a microscope (immunofluorescence microscope assay (IFA)). The quantity of γ-H2AX measured by staining intensity was compared to the ratio of γ-H2AX to total H2AX measured by the immunoassays (IA) of Examples 1 and 2. The results are shown in FIG. 18A (HT29) and FIG. 18B (MCF7).

[5] = tested on: γ-H2AX in HCT116 cells; assay: γ-H2AX immunoassay (γ-H2AX ELISA) in treated HCT116 cell cultures; type: cell-based, human
Method: Pierce REACTI-BIND plates (96-well) (Thermo Scientific) were coated with anti-7-H2AX antibody (Millipore) diluted to a concentration of 4 μg/mL in 0.1 M pH 9.6 carbonate buffer (Sigma-Aldrich, St. Louis, Mo.), 100 μL/well, for 2 hours at 37° C. The γ-H2AX synthetic peptide standard or a whole-cell extract was added to each well and incubated for antigen capture overnight at 4° C. Plates were incubated with 100 μL/well of 2 μg/mL anti-histone H2AX rabbit polyclonal antibody (Abcam) diluted in 2% bovine serum albumin (BSA)/phosphate buffered saline (PBS) supplemented with 1 μL/mL mouse serum for 2 hours (h) at 24° C. Subsequently, 100 μL/well HRP-conjugated affinity-purified goat anti-rabbit (KPL) was added at a final concentration of 1 μg/mL diluted in 2% BSA/PBS, supplemented with 1 μL/mL mouse serum, and incubated for 1 hour at 24° C. Finally, 100 μL/well of freshly prepared SUPERSIGNAL ELISA Pico chemiluminescent substrate (Thermo Scientific, Waltham, Mass.) was added to the plate and immediately read on a TECAN INFINITE M200 plate reader (Tecan Group Ltr., Maennedorf, Switzerland). A standard curve was generated by plotting the RLU (relative light unit) values that were obtained for a range of concentrations of the γ-H2AX standard peptide (FIG. 1A). The average γ-H2AX concentration for each cell extract was then determined using the standard curve (FIG. 1B).
(§2) Human […] cancer cell lines HCT 116 or MCF 7 (ATCC) were cultured with 10% fetal bovine serum at 37° C. in a 5% CO2 incubator. The cells were treated with the topoisomerase I inhibitor topotecan, the apoptosis-inducing biomolecule tumor necrosis factor (TNF)-related apoptosis-inducing ligand (TRAIL), or IR. The γ-H2AX immunoassay (γ-H2AX ELISA) was compared with γ-H2AX detection by both Western blot and immunofluorescence assay (IFA).
(§3) The ELISA detected changes in γ-H2AX in HCT116 cell cultures induced by a variety of treatments in vitro and was overall highly correlated to both IFA and Western blot following treatment with topotecan or TRAIL (Table 6).

[6] = tested on: γ-H2AX in HCT116 cells; assay: γ-H2AX detection by Western blot in treated HCT116 cell cultures; type: cell-based, human
Method: as §2, §3

[7] = tested on: γ-H2AX in HCT116 cells; assay: γ-H2AX detection by immunofluorescence assay (IFA) in treated HCT116 cell cultures; type: cell-based, human
Method: as §2, §3

[8] = tested on: tumors of the human breast carcinoma cell line MX1; assay: γ-H2AX and total H2AX immunoassays on tumor biopsies of drug-treated nude mice with MX1 tumors; type: in vivo
Method: as §1, with “Subsequently, 100 μL/well HRP-conjugated affinity-purified goat anti-rabbit (KPL) was added at a final concentration of 1 μg/mL diluted in 2% BSA/PBS, supplemented with 1 μL/mL mouse serum, and incubated for 1 hour at 24° C.” left out
Pierce REACTI-BIND plates (96-well) were coated with total anti-H2A core protein HIST1H2AC monoclonal antibody (Novus, St. Charles, Mo.) diluted to a concentration of 4 μg/mL in 0.1 M pH 9.6 carbonate buffer (Sigma-Aldrich), 100 μL/well, for 2 hours at 37° C. […] The average total H2AX concentration for each cell extract was then determined using the standard curve (FIG. 2B). […]

C[C@]1(c2nc3c(C(N)=O)cccc3[nH]2)CCCN1 [ABT-888]
induction of γ-H2AX (DNA DSB) in combination with CPT-11 [1]: synergistic induction of γ-H2AX

CNCc1ccc(-c2cc(-c3nc(-c4ccc(S(=O)(=O)C(C)C)cc4)cnc3N)on2)cc1 [VE-822]
synergy for γ-H2AX induction in combination with the Top1 inhibitor SN38 [2]: highest synergy

C/C=C1\NC(=O)[C@H]2CSSCC/C=C/[C@H](CC(=O)N[C@H](C(C)C)C(=O)N2)OC(=O)[C@H](C(C)C)NC1=O [rhomidepsin]
DNA DSB, as measured by the ratio of γ-H2AX to total H2AX ([3]; 1 hour, even at a concentration as high as 10 μM): no DNA DSB

Nc1nc(N)c(N=O)c(OCC2CCCCC2)n1 [NU-6027]
synergy for γ-H2AX induction in combination with the Top1 inhibitor SN38 [2]: none

CC[C@@]1(O)C(=O)OCc2c1cc1n(c2=O)Cc2cc3ccccc3nc2-1 [CPT, camptothecin]
staining with labeled anti-γ-H2AX antibody [4]: Staining was observed | concentration at which DNA DSB, as measured by the ratio of γ-H2AX to total H2AX, was detected ([3]; 1 hour treatment): ≥ 1 nM | concentration giving a detectable signal of DNA DSB (ratio of γ-H2AX to total H2AX) ([3]; 1 hour, with as few as 160 cells per assay): ≥ 0.01 µM

CC[C@@]1(O)C(=O)OCc2c1cc1n(c2=O)Cc2cc3c(CN(C)C)c(O)ccc3nc2-1 [Topotecan, topotecan]
γ-H2AX ELISA ([5]; Topotecan 1 μM, 0 hr): 124 pM | γ-H2AX ELISA ([5]; Topotecan 1 μM, 1 hr): 2536 pM | γ-H2AX ELISA ([5]; Topotecan 1 μM, 3 hr): 3134 pM | γ-H2AX ELISA ([5]; Topotecan 1 μM, 6 hr): 4793 pM | γ-H2AX Western Blot ([6]; Topotecan 1 μM, 0 hr): 4.7 RLU | γ-H2AX Western Blot ([6]; Topotecan 1 μM, 1 hr): 8.1 RLU | γ-H2AX Western Blot ([6]; Topotecan 1 μM, 3 hr): 6.9 RLU | γ-H2AX Western Blot ([6]; Topotecan 1 μM, 6 hr): 14.3 RLU | γ-H2AX IFA ([7]; Topotecan 1 μM, 0 hr): 0.7 RLU | γ-H2AX IFA ([7]; Topotecan 1 μM, 1 hr): 23.0 RLU | γ-H2AX IFA ([7]; Topotecan 1 μM, 3 hr): 43.9 RLU | γ-H2AX IFA ([7]; Topotecan 1 μM, 6 hr): 51.2 RLU

O=C(c1cc(Cc2n[nH]c(=O)c3ccccc23)ccc1F)N1CCN(C(=O)C2CC2)CC1 [AZD2281]
γ-H2AX induction (ratio of γH2AX to total H2AX) ([8]; 50 or 6.25 units AZD2281 IP in combination with irinotecan 7.5 units IV, particularly at 4 hours after administration): induced substantially more γ-H2AX | induction of γ-H2AX (DNA DSB) in combination with CPT-11 [1]: synergistic induction of γ-H2AX

CCc1c2c(nc3ccc(OC(=O)N4CCC(N5CCCCC5)CC4)cc13)-c1cc3c(c(=O)n1C2)COC(=O)[C@]3(O)CC [irinotecan]
γ-H2AX induction (ratio of γH2AX to total H2AX) ([8]; irinotecan 7.5 units IV alone, MX1 tumor biopsies, nude mice): induced γ-H2AX modestly

NC(=O)c1cccc2cn(-c3ccc([C@@H]4CCCNC4)cc3)nc12 [MK-4827]
induction of γ-H2AX (DNA DSB) in combination with CPT-11 [1]: synergistic induction of γ-H2AX

C[C@@H]1COCCN1c1cc(C2([S@](C)(=N)=O)CC2)nc(-c2cc[nH]c3nccc2-3)n1 [AZD-6738]
synergy for γ-H2AX induction in combination with the Top1 inhibitor SN38 [2]: highest synergy

B1: TRAIL: apoptosis-inducing biomolecule tumor necrosis factor (TNF)-related apoptosis-inducing ligand (protein, UniProt P50591 1-281, looked up)
Tumor necrosis factor ligand …: MAMMEVQGGPSLGQTCVLIVIFTVLLQSLCVAVTYVYFTNELKQMQDKYSKSGIACFLKEDDSYWDPNDEESMNSPCWQVKWQLRQLVRKMILRTSEETISTVQEKQQNISPLVRERGPQRVAAHITGTRGRSNTLSSPNSKNEKALGRKINSWESSRSGHSFLSNLHLRNGELVIHEKGFYYIYSQTYFRFQEEIKENTKNDKQMVQYIYKYTSYPDPILLMKSARNSCWSKDAEYGLYSIYQGGIFELKENDRIFVSVTNEHLIDMDHEASFFGAFLVG
γ-H2AX ELISA ([5]; TRAIL 0.1 μg/mL, 0 hr): 134 pM | γ-H2AX ELISA ([5]; TRAIL 0.1 μg/mL, 1 hr): 2764 pM | γ-H2AX ELISA ([5]; TRAIL 0.1 μg/mL, 3 hr): 9276 pM | γ-H2AX ELISA ([5]; TRAIL 0.1 μg/mL, 6 hr): 7703 pM | γ-H2AX Western Blot ([6]; TRAIL 0.1 μg/mL, 0 hr): 2.7 RLU | γ-H2AX Western Blot ([6]; TRAIL 0.1 μg/mL, 1 hr): 17.3 RLU | γ-H2AX Western Blot ([6]; TRAIL 0.1 μg/mL, 3 hr): 45.8 RLU | γ-H2AX Western Blot ([6]; TRAIL 0.1 μg/mL, 6 hr): 43.5 RLU | γ-H2AX IFA ([7]; TRAIL 0.1 μg/mL, 0 hr): 2.0 RLU | γ-H2AX IFA ([7]; TRAIL 0.1 μg/mL, 1 hr): 34.5 RLU | γ-H2AX IFA ([7]; TRAIL 0.1 μg/mL, 3 hr): 72.2 RLU | γ-H2AX IFA ([7]; TRAIL 0.1 μg/mL, 6 hr): 49.6 RLU
